Measured values published in PubChem BioAssay AID179 (DTP/NCI, 2004).
pEC50, pIC50: −log10 of the molar value. Calls of active or inactive are those of the source.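 Rule for the calls: active = compounds giving half or more protection of infected cells from virus-caused growth loss, again on retest; inactive = the rest.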

Test system: CEM cells HIV-1 protection, formazan growth assay
Assay: NCI AIDS Antiviral Assay
Conditions: for pIC50: measured here: growth of uninfected CEM cells
How it was run: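 Steps: treat uninfected and HIV-1-infected human CEM cells at five drug levels; quantify growth by soluble formazan; retest any compound reaching 50% protection; classify actives from the retest.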

SMILES | pEC50 | pIC50 | outcome
O=[N+]([O-])c1c(C=Nc2ccccc2)oc(-c2ccc3c(c2)OCO3)c1-c1ccc2c(c1)OCO2 | < 4.31 | < 4.31 | 
CCN1C(c2ccc(Cl)cc2)=NN2C(C)=CC(C)(C)N=C12 | < 4.07 | 4.22 | 
CCCCCCCCCCCCOS(=O)(=O)O | < 3.06 | 3.71 | 
O=C1[C@@H]2CC(O)[C@@H]3C(=O)[C@@H]4CC(O)[C@H]1[C@@H]4[C@H]23 (stereo partly drawn) | < 2.95 | < 2.95 | 
CCOCc1cc(=O)c2cc3c(cc2o1)OC(C)(C)CC3 |  |  | inactive
CCCCCCCCCc1cc(=O)c2ccc(OCc3ccccc3)cc2o1 | < 5.56 | < 5.56 | 
NC(=O)C1C(=O)c2cccc3c2C1CCCC3 (stereo not drawn) | < 3.63 | 4.16 | 
O=[N+]([O-])c1nccn1CC(O)c1ccc(F)cc1 (stereo not drawn) | < 3.00 | < 3.00 | 
O=C(Nn1c(-c2ccccc2)nc2ccccc2c1=O)c1ccc(O)cc1 | < 3.70 | < 3.70 | 
O=c1oc2ccccc2c(O)c1C(c1cc(OCc2ccccc2)cc(OCc2ccccc2)c1)c1c(O)c2ccccc2oc1=O | < 3.70 | 5.02 | 
Nc1ccc(/C=C/c2ccc(NC(=O)c3cc(S(=O)(=O)O)c4cccnc4c3O)cc2S(=O)(=O)O)c(S(=O)(=O)O)c1 | 4.23 | < 3.70 | 
O=C1N[C@H]2[C@H](CS[C@H]2CCCCC(=O)N(CCP(c2ccccc2)c2ccccc2)CCP(c2ccccc2)c2ccccc2)N1 | < 4.83 | < 4.83 | 
Cc1cccc2c(O)cc(=O)oc12 |  |  | inactive
C[n+]1c2ccccc2c(CNc2ccc(S(=O)(=O)N=C(N)N)cc2)c2ccccc21 |  |  | inactive
Cc1cc(=O)oc2c3c4c(cc12)CCCN4CCC3 | < 4.83 | < 4.83 | 
CSC1=C(C(=O)Nc2ccc(C)cc2)C(N)=NC1=O | < 4.00 | < 4.00 | 
O=C(NCCCCCCNC(=O)n1cc(F)c(=O)[nH]c1=O)NCCCOCCOCCOCCOCCOCCOCCOCCOCCOCCOCCOCCOCCOCCOCCOCCOCCOCCOCCOCCOCCOCCCNC(=O)C(O)C(O)C(OC1OC(CO)C(O)C(O)C1O)C(O)CO (stereo not drawn) |  |  | inactive
COc1ccc(C2=Nn3c(nc4sc(C)c(C)c4c3=O)SC2)cc1 | < 3.70 | < 3.70 | 
CC(C)NC(=O)OCCN=C1c2ccccc2CCc2ccccc21 | < 3.70 | 4.56 | 
COc1cc(OC)c2c(O)c3c(c(-c4ccc5cc6c(c(O)c5c4O)C(=O)CC(C)(O)C6)c2c1)CC(C)OC3C (stereo not drawn) |  |  | inactive
O=c1[nH]c(O)c(/C=N/C(=S)N=Nc2c(O)[nH]c3ccccc23)c(=O)[nH]1 | < 3.70 | < 3.70 | 
CCCCCCCCCCCCCCCCOCC(CN(C)CCN(C)C)OCCCCCCCCCCCCCCCC (stereo not drawn) |  |  | inactive

SMILES | pEC50 | pIC50 | outcome
N[C@H](CCOc1ccc(/C(=N/O)C(=O)N[C@H]2CN([C@@H](C(=O)O)c3ccc(O)cc3)C2=O)cc1)C(=O)O | < 3.70 | < 3.70 | 
CCCCOP(=O)(OCCCC)/C(C#N)=C/c1ccc(C)o1 | < 3.70 | 3.99 | 
Cc1ccccc1NC(=O)C(=O)C(C#N)c1ccccc1C (stereo not drawn) | < 4.75 | < 4.75 | 
CC(=O)Oc1ccc2c(-c3ccccc3)c(Oc3ccc(Cl)cc3)c(=O)oc2c1 | < 3.70 | 4.80 | 
C/C(CCn1[nH]c(=O)ccc1=O)=N\OCCCc1ccccc1 | < 3.38 | < 3.38 | 
CCC(C)[C@H](NC(=O)c1ccccc1S)C(=O)O (stereo partly drawn) | 5.07 | 3.96 | 
O=C1NN=C(c2ccc([N+](=O)[O-])cc2)C1n1nc(-c2ccccc2)c2ccccc2c1=O (stereo not drawn) | < 4.21 | < 4.21 | 
Cc1ccc(NC(=O)CC/C(CC(=O)c2ccc(F)cc2)=N\NC(=O)C(=O)NN)cc1C | < 4.93 | < 4.93 | 
O=C(/C=C/c1ccc(Cl)c(Cl)c1)c1cccc2ccccc12 | < 5.50 | < 5.50 | 
S=C1NCCN1C(=S)NC1CCCCC1 | 4.65 | < 4.00 | 
O=C1OC(=O)c2cc3c(cc21)C(=O)O/C3=C\c1ccccc1 |  |  | inactive
O=C(CCC(=O)c1ccc(Cl)cc1)NO | < 3.70 | 3.91 | 
COc1ccc(O)c2c1C(=O)CCCC2=O |  |  | inactive
CC(C)=CCC[C@@H](C)C1=C(O)C(Nc2ccccc2Br)=C(C)C(=O)C1=O | < 4.00 | 5.09 | 
CCOC(=O)C1(C#N)C(C#N)(C#N)C1(CC)CC (stereo not drawn) | < 3.70 | 4.18 | 
CC(C)(C)C(=O)/C=C/c1ccc(C#N)cc1 |  | 4.41 | inactive
O=C(Nc1nc2ccc([N+](=O)[O-])cc2s1)C(=O)C(C1OC(=O)c2ccccc21)[N+](=O)[O-] (stereo not drawn) | < 4.09 | 4.29 | 
N#CCCN(c1ccc(C=Nc2ccccc2Cl)cc1)S(=O)(=O)c1ccccc1 | < 3.37 | 3.48 | 
CC(=O)N1N(c2ccc([N+](=O)[O-])cc2)C(=O)C1(C)C | < 3.70 | < 3.70 | 
CCC1(CCCC=C(c2cc(Cl)c(OC)c(CO)c2)c2cc(Cl)c(OC)c(CO)c2)OCCO1 | < 3.70 | 4.93 | 
CC1(C)/C(=N\Nc2ccc([N+](=O)[O-])cc2[N+](=O)[O-])C2CCC1C2 (stereo not drawn) | < 3.70 | < 3.70 | 
O=c1[nH]c2c(c3ccccc13)CCc1ccccc1-2 |  |  | inactive

SMILES | pEC50 | pIC50 | outcome
CC1Cn2c(nnc2-c2ccccc2O)S1 (stereo not drawn) |  |  | inactive
COc1cc(OC)c(C(=O)c2cccs2)cc1N |  |  | inactive
COC1/C=C/OC2(C)Oc3c(C)c(O)c4c(O)c(c(/C=N/N5C(C)CN(Cc6cccc(C#N)c6)CC5C)c(O)c4c3C2=O)NC(=O)/C(C)=C\C=C\C(C)C(O)C(C)C(O)C(C)C(OC(C)=O)C1C (stereo not drawn) | < 3.70 | 5.19 | 
O=C1/C(=C\c2ccccc2)c2ccccc2N1/N=C\c1ccccc1 | < 4.51 | < 4.51 | 
Cc1ccc2oc3ccccc3c(=O)c2c1 | < 4.61 | < 4.61 | 
COCCOCCOCCOc1cccc2c1C(=O)c1c(OCCOCCOCCOC)cccc1C2=O |  |  | inactive
Cc1c(C(=O)C(=O)c2ccccc2)c(C)c(C(=O)C(=O)c2ccccc2)c(C)c1C(=O)C(=O)c1ccccc1 | < 3.70 | < 3.70 | 
C[CH2][Sn]([CH2]C)([O]C(=O)c1cccc(F)c1)[O][Sn]([CH2]C)([CH2]C)[O]C(=O)c1cccc(F)c1 | < 5.23 | < 5.23 | 
Cn1c2ccccc2c2c3c(ccc21)C(=O)c1ccccc1C3=O | < 4.77 | < 4.77 | 
CCOC(=O)C1=NN(c2ccccc2)C(=O)/C1=C\n1c(=S)sc2ccccc21 | < 4.00 | 4.29 | 
Cc1ccc(S(=O)(=O)c2scc(-c3ccccc3)c2C)cc1 | < 3.70 | 3.97 | 
O=C1CCC2(c3ccc(Cl)cc3)Nc3ncncc3N12 (stereo not drawn) | < 3.06 | 3.75 | 
C=CCCC(=O)N1CCC(C(=O)OCC)C1=O (stereo not drawn) | < 3.70 | < 3.70 | 
CC1=C(C)C(=O)c2c(cc3ccc4ccccc4n23)C1=O |  |  | inactive
Cc1ccc(N(C)S(=O)(=O)c2ccccc2)cc1 | < 3.84 | 4.17 | 
COC(=O)C(C(=O)C(=O)Nc1nc(=S)[nH][nH]1)c1csc(N)n1 (stereo not drawn) | < 3.14 | < 3.14 | 
Cc1cccc(NC(=O)CSc2nnc(Cc3ccccc3)o2)c1 | < 3.27 | < 3.27 | 
Oc1c(C(O)c2ccccn2)ccc2ccccc12 (stereo not drawn) | < 3.70 | 4.44 | 
c1ccc(SC2CCCO2)cc1 (stereo not drawn) |  |  | inactive
O=[N+]([O-])c1sc2ccc(Cl)cc2c1Nc1ccc(Cl)cc1 | < 3.70 | < 3.70 | 
CC(=O)NNc1nc(C)c(C(=O)NNC(=O)C(=O)Nc2ccc(Cl)c([N+](=O)[O-])c2)s1 | < 3.54 | 3.97 | 
Cc1ccc(S(=O)(=O)c2c(N)c3nccn3c3nc4ccccc4nc23)cc1 | < 4.59 | < 4.59 | 

SMILES | pEC50 | pIC50 | outcome
O=C1C(=O)c2ccccc2C(O)=C1C(C1=C(O)c2ccccc2C(=O)C1=O)c1ccc(Cl)c(Cl)c1 | < 3.70 | 4.73 | 
CCOC(=O)Nc1cc(NC(/C=N/NC(C)=O)C(=O)OCC)c(OC)cc1NC(C)=O (stereo not drawn) | < 3.70 | < 3.70 | 
COc1c(NS(=O)(=O)c2ccccc2)cc2c3c(cccc13)/C(=C1\Cc3cccc4c(OC)c(NS(=O)(=O)c5ccccc5)cc1c34)C2 | < 3.70 | 3.88 | 
NC(N)=NC(N)=Nc1cccc(S(=O)(=O)c2cccc(N=C(N)N=C(N)N)c2)c1 | 3.90 | < 3.70 | 
CCOc1ccc(/C=C2\NC(=S)N(/C=C3\C(=O)Oc4ccccc4C3=O)C2=O)cc1 |  |  | inactive
Cn1cc(N)cc1C(=O)Nc1cc(C(=O)Nc2ccc(S(=O)(=O)O)c3cc(S(=O)(=O)O)ccc23)n(C)c1 | 4.50 | 3.49 | 
COc1ccc(CNc2cnc3cc(N)ccc3n2)cc1OC | < 3.94 | < 3.94 | 
CC(CO)(CO)N1C(=O)c2cccc3cc([N+](=O)[O-])cc(c23)C1=O | < 3.70 | < 3.70 | 
Cc1cccc(/C=N/NC(=S)NCCc2ccccn2)n1 | < 3.70 | 4.69 | 
O=C(O)c1ccc(CSc2ccc(Cl)cc2)c([N+](=O)[O-])c1 | < 3.68 | 4.02 | 
O=C(COC(=O)c1cccc2c(=O)c3ccccc3[nH]c12)Nc1ccccc1 |  |  | inactive
CN1C(=O)C2C(=O)N(Cc3ccccc3)CC(=O)N2c2cccnc21 (stereo not drawn) | < 3.70 | < 3.70 | 
CCCC(=O)NC(Nc1ccc(S(=O)(=O)Nc2nc(C)cc(C)n2)cc1)(C(F)(F)F)C(F)(F)F | < 3.70 | < 3.70 | 
Cc1ccc(N=Nc2c(C)nn(-c3ccccc3)c2-c2ccccc2)c(Br)c1 |  |  | inactive
CC12CCC([C@H](Nc3cc(C(F)(F)F)cc(C(F)(F)F)c3)C1=O)C2(C)C (stereo partly drawn) | < 4.70 | < 4.70 | 
O=C(NCCO)c1c(CNC2CCCCC2)n([O-])c2ccccc2[n+]1=O | < 3.30 | < 3.30 | 
O=C1c2ccccc2S(=O)(=O)c2c1cccc2[N+](=O)[O-] | < 3.70 | 6.07 | 
CCCn1c(SCC)c2ccccc2c1-c1nc(F)nc(F)n1 | < 5.09 | < 5.09 | 
O=C(Nc1ccccc1)N(C1=NCC(CI)S1)c1ccc(F)cc1F (stereo not drawn) | < 3.70 | 4.60 | 
